Measurements reported in patent publication US11617773B2, “Elimination of colonic bacterial driving lethal inflammatory cardiomyopathy” (Eligo Bioscience, priority 2020, dated 2023).
No end group written: not given here.

Key:
Rag1^−/− mice = test: Adoptive transfer myocarditis model with antibiotics treatment; assay type: in vivo, mouse; settings: for accumulation of TCR-transgenic CD4^+ T cells in hearts / cardiac inflammation by flow cytometry (heart-infiltrating CD45^+ cells): day 28
Method: For the generation of single-cell suspensions, spleens and lymph nodes were collected in BSS and were mechanically disrupted on a metallic grid. To confirm the presence of heart-infiltrating cells, mice received 2 μg of anti-CD45.2 BV510 or anti-Thy 1.1 PE i.v. 5 min before being euthanized in the indicated experiments. Euthanized animals were perfused with 20 ml PBS and small heart tissue pieces were placed into a 6-well dish filled with RPMI 1640 medium containing 2% FCS, 20 mM HEPES (Lonza), 1 mg/ml collagenase 0 (Sigma) and 25 μg/ml DNasel (Applichem) and incubated at 37° C. under continuous stirring. The remaining tissue pieces were mechanically disrupted and mononuclear cells were purified by centrifugation (25 min at 800×g, 4° C.) on a 30-70% Percoll gradient (GE Healthcare). For isolation of colonic lamina propria cells, colons were flushed and tissue was harvested and incubated three times for 15 min at room temperature under constant agitation with BSS containing 5% FCS (Lonza), 5 mM EDTA (Sigma), 10 mM HEPES (Sigma) and 1 mM OTT in order to dissociate the epithelial layer. The tissue was subsequently washed with SS containing 10 mM HEPES and digested three times for 20 min at 37° C. with 120 μg/ml collagenase P (Roche), 25 μg/ml DNAse I (Applichem) and 5 μg/ml Dispase I (Roche) in RPMI-1640; after obtaining a single cell suspension, cells were purified by a 30-70% Percoll gradient. Single-cell suspensions were first stained with the fixable viability dye Zombie Aqua (Biolegend) and incubated for 30 min on ice; after washing, cells were incubated for 20 min at 4° C. in PBS containing 2% FCS and 10 mM EDTA with fluorochrome-labeled antibodies (Table 5). Cells were acquired with a BD LSRFortessa (BD Biosciences) and analyzed using FlowJo software (Treestar Inc) following stablished guidelines (32). […] Cells were stimulated with 0.25 μg of the different peptides (see below), or phorbol myristate acetate (50 ng/ml; Sigma)/ionomycin (500 ng/ml; Sigma) (PMA/l) as positive control, or were left untreated. After surface molecule labelling, cells were stained with the fixable viability dye Zombie Aqua (Biolegend). Cells were fixed with cytofix-cytoperm (BD Biosciences) for 20 min. […] Samples were measured using a BD LSR Fortessa (BD Biosciences). Data were analyzed using FlowJo software (Tree Star, Inc.). […] Red blood cells were lysed by osmotic shock and 10^6 splenocytes were injected intravenously in 4 wk mice in the lateral tail vein of Rag1^−/− mice. Seven days after adoptive transfer, mice were bled to confirm CD4^+ T cell expansion. Disease activity scores and analysis of T cell activation in the heart and colonic lamina propria were performed at day 28 post adoptive transfer.

B. thetaiotaomicron = test: Quantitative B. thetaiotaomicron PCR in feces; assay type: in vivo, Bacteroides thetaiotaomicron; settings: Rag1^−/− recipients, qPCR
Method: Bacterial genomic DNA was extracted using a commercial kit (QIAamp DNA Stool Mini Kit) with minor modifications. Glass beads (Sigma, G4649-10G) were used for an optimal disruption of fecal content and an additional extraction step was introduced after incubation of bacteria with a lysis buffer (20 mg/ml lysozyme—Sigma 62970-5G-F, 2 mM EDTA, 1.2% Triton, 20 mM Tris-HCl). Extracted genomic DNA was used as a template for B. thetaiotaomicron PCR amplification and quantification using a real-time PCR machine (Quant Studio 5) and SYBR Green PCR technology (Applied Biosystems, Thermo Fisher Scientific). B. thetaiotaomicron was quantified using species specific primers that have been established and validated before (39) ([…] and […]) with a cycling protocol of denaturation at 95° C. (2 min), 40 cycles of 95° C. (20 sec), 58° C. (20 sec) and 72° C. (30 sec). Each 17 μl qPCR mixture consisted of 8.5 μl of 2×SYBR Green MasterMix (Applied Biosystems, Thermo Fisher Scientific), 1.7 μl of BSA (100 μg/ml), 0.6 μl of each primer (10 μM), 3.60 μl PCR-grade water and 2 μl of extracted genomic DNA. DNA extracted from B. theta ATCC29148 was used to construct a standard curve with 10-fold dilutions of DNA templates of known concentrations. Concentrations of DNA used in the standard curves ranged from 33.75 ng/μl equivalent to 10^7 bacteria to 0.035 pg/μl equivalent to 10^1 bacteria. […]

[1] = tested on: CD4^+ T cells from TCRM mice; test: Ex vivo proliferation assay (CFSE dilution) after peptide re-stimulation; assay type: cell-based, mouse; settings: 3 days
Method: Spleen cells were labelled with 10 μl of 5 mM carboxyfluorescein succinimidyl ester (CSFE, dissolved in DMSO) (Molecular Probes) in 10 ml of PBS for 10 min at 37° C. The staining reaction was stopped with 1 mL FCS (Lonza), followed by washing with PBS. A total of 2×10^5 splenocytes/well were seeded in 96-well round-bottom plate and MYH6614-629 (RSLKLMATLFSTYASADR, SEQ ID NO: 10) or Bacteroides β-galactosidase11-25 (TFLILMAALTATFASAQK, SEQ ID NO: 11), Enterobacter cysteine hydrolase10-27 (LLIGMMSTFSTYASAQET, SEQ ID NO: 12) or OVA323-339 (ISQAVHAAHAEINEAGR, SEQ ID NO: 13) peptide was added at the indicated concentrations. CSFE dilution was assessed by flow cytometry after 3 days of incubation at 37° C. All peptides were synthetized by Genscript with >80% of purity.

[2] = tested on: CD4^+ T cells from heart and colon of TCRM mice; test: Ex vivo restimulation and cytokine production of murine T cells; assay type: cell-based, mouse
Method: For assessment of ex vivo production of IFN-γ and IL-17, 10^6 lymphocytes were incubated for 3.5 h at 37° C. in 96-well round-bottom plates in 200 μL of RPMI per 5% FCS supplemented with 10 μg/mL brefeldin A (Sigma). Cells were stimulated with 0.25 μg of the different peptides (see below), or phorbol myristate acetate (50 ng/ml; Sigma)/ionomycin (500 ng/ml; Sigma) (PMA/l) as positive control, or were left untreated. After surface molecule labelling, cells were stained with the fixable viability dye Zombie Aqua (Biolegend). Cells were fixed with cytofix-cytoperm (BD Biosciences) for 20 min. Fixed cells were incubated at 4° C. for 40 min with permeabilization buffer (2% FCS, 0.5% saponin in PBS) containing antibodies to CD3, CD4, IFN-γ and IL-17A. Samples were measured using a BD LSR Fortessa (BD Biosciences). Data were analyzed using FlowJo software (Tree Star, Inc.).

[3] = tested on: peripheral blood mononuclear cells; test: IFN-γ ELISPOT, human T cell stimulation; assay type: cell-based; settings: Micro-DCM patients compared to healthy controls
Method: IFN-γ ELISPOT was performed as described by Lv et. al. with minor modifications (7), Briefly, PBMCs from patients and healthy volunteers were isolated on density gradients. PBMCs were adjusted to 2×10^6 cells/ml in 0.5 ml of complete IVS medium supplemented with 8% of human serum. Cells were stimulated for 48 h with 0.25 μg/ml of the indicated peptide or left untreated as medium control. After incubation, cells were washed and re-suspended in 0.3 ml of RPMI/10% FOS and approximately 5×10^5 cells/0.1 ml were dispensed in duplicates into previously coated and blocked ELISPOT plates (IFN-γ base kit, MABTECH). After 24 h of incubation at 37° C. the ELISPOT plates were washed and developed as indicated by the manufacturer. Plates were counted using an ELISPOT reader and analyzed with the software ELISPOT 3.1SR (AID). Number of specific IFN-γ positive cells was calculated as the mean of the duplicates minus the mean of the medium control.

TCRM T cells = test: Proliferation of transferred TCRM CD4^+ T cells after injection of peptide loaded dendritic cells; assay type: in vivo, mouse; settings: TCRM CD4^+ T cells transferred into BALB/c mice
Source text: FIGS. 7A-I. Specificity and immune interaction of Bacteroides mimic peptide-specific CD4^+ T cells. (FIG. 7A) In vitro proliferation of CD4^+ T cells from TCRM mice or DO11.10 mice measured by CFSE dilution after re-stimulation with MYH6 or Bacteroides β-galactosidase peptide or ovalbumin peptide at indicated concentration (representative histograms from 1 out of 2 experiments) (FIG. 7B) Dendritic cells loaded with MYH6 or β-gal peptide from Bacteroides at the indicated concentration were co-cultured in vitro with CD4^+ T cells from TCRM mice. Maximum proliferation of CD4^+ T cells was analyzed by flow cytometry and effective concentration 50 (EC50) for each peptide was determined. (FIG. 7C) CD4^+ T cells from TCRM mice were adoptively transferred into BALB/c mice. Proliferation of CD4^+ T cells from TCRM mice was determined ex vivo by CFSE dilution after injection of peptide loaded dendritic cells (n=3). (FIG. 7D-FIG. 7E) Colonization of GF TCRM mice with SPF microbiota or B. thetaiotaomicron or E. coli. […] Fold increase values were calculated using the cytokine production in GF mice as baseline (mean±SEM). […] (FIG. 7H) experimental dosing, (FIG. 7I) representative dot plots left and quantification right of IgA bound bacteria; background was set using samples from Rag^−/− mice (mean±SEM). […]

Compound: [H]/N=C(/N)N[C@H]1[C@H](O)[C@@H](O)[C@H](O[C@@H]2O[C@@H](C)[C@](O)(C=O)[C@H]2O[C@@H]2O[C@@H](CO)[C@H](O)[C@@H](O)[C@@H]2NC)[C@@H](N/C(N)=N\[H])[C@@H]1O [Streptomycin]
- accumulation of TCR-transgenic CD4^+ T cells in hearts (Rag1^−/− mice): significantly reduced accumulation
- cardiac inflammation by flow cytometry (heart-infiltrating CD45^+ cells) (Rag1^−/− mice): profound reduction

Compound: CN[C@H](CC(C)C)C(=O)N[C@H]1C(=O)N[C@@H](CC(N)=O)C(=O)N[C@H]2C(=O)N[C@H]3C(=O)N[C@H](C(=O)N[C@H](C(=O)O)c4cc(O)cc(O)c4-c4cc3ccc4O)[C@H](O)c3ccc(c(Cl)c3)Oc3cc2cc(c3O[C@@H]2O[C@H](CO)[C@@H](O)[C@H](O)[C@H]2O[C@H]2C[C@](C)(N)[C@H](O)[C@H](C)O2)Oc2ccc(cc2Cl)[C@H]1O [Vancomycin]
- activity of Th1 cells (Rag1^−/− mice; IFN-γ production): reduced to a lesser extent
- activation of heart-infiltrating and colonic Th17 cells (Rag1^−/− mice; IL-17 production): pronounced impact
- accumulation of TCR-transgenic CD4^+ T cells in hearts (Rag1^−/− mice): significantly reduced accumulation
- cardiac inflammation by flow cytometry (heart-infiltrating CD45^+ cells) (Rag1^−/− mice): profound reduction
- cardiac disease (histopathology) (Rag1^−/− mice; day 28 post adoptive transfer): significantly ameliorated
- B. theta levels in fecal samples (B. thetaiotaomicron): reduced

Compound: LLIGMMSTFSTYASAQET (Enterobacter cysteine hydrolase 10-27) [Enterobacter cloacae peptide, Enterobacter cysteine hydrolase10-27 peptide synthetized by Genscript]
- in vitro proliferation of CD4^+ T cells from TCRM mice [1]: not

Compound: RSLKLMATLFSTYASADR (MYH6 614-629) [MYH6 peptide, MYH6614-629 peptide synthetized by Genscript]
- IFN-γ or IL-17 secretion upon ex-vivo re-stimulation ([2]; CD4^+ T cells from colonic lamina propria, TCRM vs DO11.10): only MYH6-specific CD4^+ T cells, but not ovalbumin-specific CD4^+ T cells from the colonic lamina propria were able to secrete IFN-γ or IL-17

Compound: SLKLMATLFSSYATAD (listed as Homo sapiens) [SEQ ID NO: 17, human myosin heavy chain 6 peptide]
- IFN-γ reactivity of PBMC [3]: significantly higher IFN-γ reactivity

Compound: TFLILMAALTATFASAQK [B. theta β-gal peptide, TFLILMAALTATFASAQK]
- in vitro proliferation of CD4^+ T cells from TCRM mice [1]: induced in vitro proliferation
- activation of TCRM T cells in vivo by peptide-pulsed dendritic cells (TCRM T cells): efficient activation of TCRM T cells in vivo
- ex vivo re-stimulation of transgenic CD4^+ T cells (cytokine production) ([2]; heart and colon of 12 week old TCRM mice): ex vivo re-stimulation of transgenic CD4^+ T cells from heart and colon
- IFN-γ reactivity of PBMC [3]: significantly higher IFN-γ reactivity
